Measurements reported in PubChem BioAssay (NCI).
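All cell lines were grown in 96-well plates and treated with compound for 48 hours. TGI denotes the concentration required for complete inhibition of growth.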

Key:
Experiment in all cases: DTP human tumour cell line panel, 48 h
[1] = system: OVCAR-5 ovarian
[2] = system: MOLT-4 leukemia
[3] = system: HOP-92 NSCLC
[4] = system: NCI-H460 lung
[5] = system: PC-3 prostate
[6] = system: NCI-H23 lung
[7] = system: 786-0 renal
[8] = system: HCC-2998 colon

Compound `COc1cccc(NC(=O)CC(=O)NN)c1` has a TGI [1] greater than 100 µM, a TGI [2] greater than 100 µM and a TGI [3] greater than 100 µM. It also gave a TGI [4] greater than 100 µM, a TGI [5] greater than 100 µM and a TGI [6] greater than 100 µM. It also gave a TGI [7] greater than 100 µM.
`CC1=NN(c2nc(N)nc(CO)n2)C(C)(C)C1` gave a TGI [1] greater than 100 µM, a TGI [2] greater than 100 µM and a TGI [3] greater than 100 µM. For the same compound, the TGI [5] was greater than 100 µM, the TGI [6] was greater than 100 µM and the TGI [8] was greater than 100 µM. It also gave a TGI [7] greater than 100 µM.
For `CCOC(=O)C(O)(CC1=NC(C(=O)OC)(C(=O)OC)C(c2cccc(C=O)c2)O1)C(=O)OCC` (stereo unspecified), the TGI [1] was greater than 100 µM, the TGI [2] was greater than 100 µM and the TGI [3] was greater than 100 µM. For the same compound, the TGI [4] was greater than 100 µM, the TGI [5] was greater than 100 µM and the TGI [6] was greater than 100 µM. The TGI [8] was greater than 100 µM and the TGI [7] was greater than 100 µM.
`CCOC(=O)Cc1c(C(=O)OCC)[n+](=O)c2cc(Cl)c(Cl)cc2n1[O-]` showed a TGI [1] of 5.24 µM, a TGI [4] of 3.46 µM and a TGI [5] of 4.69 µM. The TGI [6] was 5.49 µM, the TGI [8] was 5.1 µM and the TGI [7] was 3.84 µM.
Work on `Cc1ccc(C2=CC(=O)/C(=C\C(=O)c3ccc(Br)cc3)O2)c(C)c1` yielded a TGI [1] of 56.7 µM, a TGI [2] greater than 47.9 µM and a TGI [3] of 19.4 µM. For the same compound, the TGI [4] was 69.2 µM, the TGI [5] was 11.6 µM and the TGI [6] was 56.9 µM. For the same compound, the TGI [8] was 25.4 µM and the TGI [7] was 16 µM.
With `CCOC(=O)C(C)c1nc2cc(F)c(F)cc2[nH]c1=O` (stereo unspecified) the TGI [1] was greater than 100 µM, the TGI [2] was greater than 100 µM and the TGI [3] was greater than 100 µM. It also gave a TGI [4] greater than 100 µM, a TGI [5] greater than 100 µM and a TGI [6] greater than 100 µM. It also gave a TGI [8] greater than 100 µM and a TGI [7] greater than 100 µM.
Work on `Cc1ccc(C(=O)N/N=C(\N=Nc2ccc([N+](=O)[O-])cc2)c2ccc(N(CCC#N)CCC#N)cc2C)cc1` yielded a TGI [1] greater than 100 µM, a TGI [2] greater than 100 µM and a TGI [3] greater than 100 µM. It also gave a TGI [4] greater than 100 µM, a TGI [5] greater than 100 µM and a TGI [6] greater than 100 µM. The TGI [8] was greater than 100 µM and the TGI [7] was greater than 100 µM.
`C[N+]1(C)CCCC(C#N)(c2ccccc2)CC1` (stereo unspecified) was tested, and the TGI [1] was greater than 100 µM, the TGI [2] was greater than 100 µM and the TGI [3] was greater than 100 µM. For the same compound, the TGI [4] was greater than 100 µM, the TGI [5] was greater than 100 µM and the TGI [6] was greater than 100 µM. It also gave a TGI [8] greater than 100 µM and a TGI [7] greater than 100 µM.
`Cc1ccc(/C=c2\cc3oc(=O)c4cccc(c4-3)c2=O)cc1` showed a TGI [1] greater than 100 µM, a TGI [3] greater than 100 µM and a TGI [4] greater than 100 µM. For the same compound, the TGI [5] was greater than 100 µM, the TGI [6] was greater than 100 µM and the TGI [8] was greater than 100 µM. For the same compound, the TGI [7] was greater than 100 µM.
`Cc1ccc(S(=O)(=O)N/N=C2\C=CC3(CC2)C(=O)N(I)c2ccccc23)cc1` (stereo unspecified) was tested, and the TGI [1] was greater than 100 µM, the TGI [2] was greater than 100 µM and the TGI [3] was greater than 100 µM. For the same compound, the TGI [4] was greater than 100 µM, the TGI [5] was greater than 100 µM and the TGI [6] was greater than 100 µM. The TGI [8] was greater than 100 µM and the TGI [7] was greater than 100 µM.
In the case of `CN(C)C(=O)C(F)(F)C(c1ccccc1)C1C(=O)N(C)C(=O)N(C)C1=O` (stereo unspecified), the TGI [1] is reported as greater than 100 µM, the TGI [2] is reported as greater than 100 µM and the TGI [3] is reported as greater than 100 µM. It also gave a TGI [4] greater than 100 µM, a TGI [5] greater than 100 µM and a TGI [6] greater than 100 µM. The TGI [8] was greater than 100 µM and the TGI [7] was greater than 100 µM.
`O/N=C\c1c2c(cc3c1CCC3)CCC2` was tested, and the TGI [1] was greater than 100 µM, the TGI [2] was greater than 100 µM and the TGI [4] was greater than 100 µM. It also gave a TGI [5] greater than 100 µM, a TGI [6] greater than 100 µM and a TGI [8] greater than 100 µM. It also gave a TGI [7] greater than 100 µM.
Work on `O=C(NNC(=O)c1ccco1)c1ccco1` yielded a TGI [1] greater than 100 µM, a TGI [2] greater than 100 µM and a TGI [4] greater than 100 µM. For the same compound, the TGI [5] was greater than 100 µM and the TGI [7] was greater than 100 µM.
`CSc1cc(Cl)c(C)cc1S(=O)(=O)NC(=O)NNc1ccc(C)cc1` showed a TGI [1] greater than 100 µM, a TGI [2] greater than 100 µM and a TGI [4] greater than 100 µM. For the same compound, the TGI [5] was greater than 100 µM, the TGI [8] was 66.1 µM and the TGI [7] was greater than 100 µM.
`ClC1=NSSC1(Cl)Cl` gave a TGI [1] of 85 µM, a TGI [2] of 53.4 µM and a TGI [4] greater than 100 µM. For the same compound, the TGI [5] was greater than 100 µM, the TGI [6] was greater than 100 µM and the TGI [8] was greater than 100 µM. The TGI [7] was 59.3 µM.
For `C[C@]12CC[C@H]3[C@@H](CC=C4C[C@@H](O)CC[C@@]43C)[C@@H]1C/C(=C\c1cccnc1)[C@@H]2O`, the TGI [1] was greater than 100 µM, the TGI [3] was 59.6 µM and the TGI [4] was greater than 100 µM. It also gave a TGI [5] greater than 100 µM, a TGI [6] greater than 100 µM and a TGI [7] of 96 µM.
Work on `COC(=O)c1ccccc1CC1Cc2c(C)ccc(C)c2C1=O` (stereo unspecified) yielded a TGI [1] greater than 100 µM, a TGI [2] of 45.6 µM and a TGI [3] of 54.4 µM. It also gave a TGI [4] greater than 100 µM, a TGI [5] greater than 100 µM and a TGI [6] of 55.2 µM. It also gave a TGI [8] greater than 100 µM and a TGI [7] greater than 100 µM.
In the case of `COc1ccc(OC)c2c(C(C)=O)cccc12`, the TGI [1] is reported as greater than 100 µM, the TGI [2] is reported as greater than 100 µM and the TGI [4] is reported as greater than 100 µM. It also gave a TGI [5] greater than 100 µM, a TGI [6] greater than 100 µM and a TGI [8] greater than 100 µM. The TGI [7] was greater than 100 µM.
`CN(C(=O)Cc1ccccc1)n1cn[n+](CC(=O)OC(C)(C)C)c1` was tested, and the TGI [1] was greater than 10 µM, the TGI [2] was greater than 10 µM and the TGI [3] was greater than 10 µM. It also gave a TGI [4] greater than 10 µM, a TGI [5] greater than 10 µM and a TGI [6] greater than 10 µM. The TGI [8] was greater than 10 µM and the TGI [7] was greater than 10 µM.
With `CSc1c(C(C)=O)c(O)n(-c2ccc(C)cc2)c(=O)c1C#N` the TGI [1] was greater than 100 µM, the TGI [2] was greater than 100 µM and the TGI [4] was greater than 100 µM. For the same compound, the TGI [5] was greater than 100 µM, the TGI [6] was greater than 100 µM and the TGI [8] was greater than 100 µM. For the same compound, the TGI [7] was greater than 100 µM.
Compound `O=C1c2cc3c(cc2NC(c2ccccc2F)C1O)OCO3` (stereo unspecified) has a TGI [1] greater than 75.9 µM, a TGI [2] greater than 83.9 µM and a TGI [3] greater than 100 µM. For the same compound, the TGI [4] was greater than 100 µM, the TGI [5] was greater than 100 µM and the TGI [6] was greater than 91.5 µM. For the same compound, the TGI [8] was greater than 75.1 µM and the TGI [7] was 48.1 µM.
With `CO[C@@]12C[C@H](CNC(=O)c3ccc[nH]3)O[C@@H]1NC(=O)N2` the TGI [1] was greater than 100 µM, the TGI [2] was greater than 100 µM and the TGI [3] was greater than 100 µM. The TGI [4] was greater than 100 µM, the TGI [5] was greater than 100 µM and the TGI [6] was greater than 100 µM. It also gave a TGI [8] greater than 100 µM and a TGI [7] greater than 100 µM.
With `COCN1C(=O)[C@@H]2CCCN2C(=O)c2ccc(N)cc21` the TGI [1] was greater than 100 µM, the TGI [2] was greater than 100 µM and the TGI [3] was greater than 100 µM. For the same compound, the TGI [4] was greater than 100 µM, the TGI [5] was greater than 100 µM and the TGI [6] was greater than 100 µM. For the same compound, the TGI [8] was greater than 100 µM and the TGI [7] was greater than 100 µM.
`Nc1nc(Cl)c(CO)c(NCC2(CO)CCC2)n1` was tested, and the TGI [1] was greater than 100 µM, the TGI [2] was greater than 100 µM and the TGI [3] was greater than 100 µM. For the same compound, the TGI [4] was greater than 100 µM, the TGI [5] was greater than 100 µM and the TGI [6] was greater than 100 µM. For the same compound, the TGI [8] was greater than 100 µM and the TGI [7] was greater than 100 µM.
For `CC1CC(=O)N(N(C)C)C2(C#N)C(=O)N=C(N)C12C#N` (stereo unspecified), the TGI [1] was greater than 100 µM, the TGI [2] was greater than 100 µM and the TGI [3] was greater than 100 µM. It also gave a TGI [5] greater than 100 µM, a TGI [6] greater than 100 µM and a TGI [8] greater than 100 µM. For the same compound, the TGI [7] was greater than 100 µM.
`CC(C)(C)OC(=O)Cn1ncn(NC(=O)Cc2ccccc2)c1=S` was tested, and the TGI [1] was greater than 10 µM, the TGI [2] was greater than 10 µM and the TGI [3] was greater than 10 µM. For the same compound, the TGI [4] was greater than 10 µM, the TGI [5] was greater than 10 µM and the TGI [6] was greater than 10 µM. It also gave a TGI [8] greater than 10 µM and a TGI [7] greater than 10 µM.
